Data reported in the NIST ThermoML archive (doi:10.1016/j.jct.2007.05.005).
Several values for one entry are separate records, joined by “and”; a condition that tells them apart may be missing. Identical values can stand only once.

Legend:
[1] = 101.3 kPa, Liquid; for speed of sound: Sing-around technique in a fixed-path interferometer
[2] = xn = mol fraction of the nth substance listed; conditions: 101.3 kPa, Liquid, x2 = 0; for speed of sound: Sing-around technique in a fixed-path interferometer

CC(C)CC(C)(C)C [2,2,4-trimethylpentane]
[1]
Conditions | mass density [kg/m3] | speed of sound [m/s]
288.15 K | 695.948 | 1124.3
298.15 K | 687.749 | 1082.2
323.15 K | 666.832 | 979.25

CC(C)CC(C)(C)C [2,2,4-trimethylpentane] + CCOC(C)(C)C
[2]
Conditions | mass density [kg/m3] | speed of sound [m/s]
288.15 K | 695.948 | 1124.3
298.15 K | 687.749 | 1082.2
323.15 K | 666.832 | 979.25

CCOC(C)(C)C [2-ethoxy-2-methylpropane]
[1]
Conditions | mass density | speed of sound
288.15 K | 745.656 kg/m3 and 744.955 kg/m3 | 1078.9 m/s and 1076.4 m/s
298.15 K | 735.357 kg/m3 and 734.806 kg/m3 | 1033.2 m/s and 1031 m/s
303.15 K | 730.186 kg/m3 | 1010.2 m/s
313.15 K | 719.687 kg/m3 | 965.87 m/s
323.15 K | 709.007 kg/m3 and 708.642 kg/m3 and 708.996 kg/m3 | 922.48 m/s and 920.73 m/s and 922.08 m/s

CC(C)(C)O [2-methylpropan-2-ol]
[1]
Conditions | mass density [kg/m3] | speed of sound [m/s]
303.15 K | 775.028 | 1098.2
313.15 K | 764.554 | 1055.4
323.15 K | 753.679 | 1013

CC(C)(C)O [2-methylpropan-2-ol] + CCOC(C)(C)C
[2]
Conditions | mass density [kg/m3] | speed of sound [m/s]
303.15 K | 775.028 | 1098.2
313.15 K | 764.554 | 1055.4
323.15 K | 753.679 | 1013

c1ccccc1 [benzene]
[1]
Conditions | mass density [kg/m3] | speed of sound [m/s]
288.15 K | 884.183 | 1345.5
298.15 K | 873.52 | 1298.3
323.15 K | 846.641 | 1184.6

c1ccccc1 [benzene] + CCOC(C)(C)C
[2]
Conditions | mass density [kg/m3] | speed of sound [m/s]
288.15 K | 884.183 | 1345.5
298.15 K | 873.52 | 1298.3
323.15 K | 846.641 | 1184.6

CCO [ethanol]
[1]
Conditions | mass density [kg/m3] | speed of sound [m/s]
288.15 K | 793.644 | 1177.3
298.15 K | 785.082 | 1142.4
323.15 K | 763.177 | 1059.3

CCO [ethanol] + CCOC(C)(C)C
[2]
Conditions | mass density [kg/m3] | speed of sound [m/s]
288.15 K | 793.644 | 1177.3
298.15 K | 785.082 | 1142.4
323.15 K | 763.177 | 1059.3

CCc1ccccc1 [ethylbenzene]
[1]
Conditions | mass density [kg/m3] | speed of sound [m/s]
288.15 K | 870.736 | 1359.1
298.15 K | 862.068 | 1316.2
323.15 K | 840.054 | 1213.6

CCc1ccccc1 [ethylbenzene] + CCOC(C)(C)C
[2]
Conditions | mass density [kg/m3] | speed of sound [m/s]
288.15 K | 870.736 | 1359.1
298.15 K | 862.068 | 1316.2
323.15 K | 840.054 | 1213.6

Cc1ccccc1 [toluene]
[1]
Conditions | mass density [kg/m3] | speed of sound [m/s]
288.15 K | 871.457 | 1347.5
298.15 K | 862.173 | 1303.4
323.15 K | 838.706 | 1196.6

Cc1ccccc1 [toluene] + CCOC(C)(C)C
[2]
Conditions | mass density [kg/m3] | speed of sound [m/s]
288.15 K | 871.457 | 1347.5
298.15 K | 862.173 | 1303.4
323.15 K | 838.706 | 1196.6
